According to US20080260896A1 (priority 2007, published 2008):
Like-named read-outs stand apart in the source and are kept apart here. Marks after values point to notes of the source that are not given here.

Columns and labels:
[1] = Lactating Holstein cows fed heat stress product with and without glycerin; format: in vivo; conditions: heat stress product + 454 g/d glycerin
Text: Forty-eight lactating Holstein cows (twelve per treatment) were used in a randomized complete block design to determine the effect of feed additives on production efficiency. […] Treatments 2 and 4 will be the focus of this example. Diets were corn silage based and formulated to be iso-nitrogenous. Cows were housed in a free-stall barn with access to individual stalls. Training for Calan door use was initiated in mid-May, the standardization period occurred in early June and the treatment period started in late June and continued through early August. Feed was mixed and delivered once daily and fed behind electronic Calan doors, allowing individual intake to be determined. Ad libitum intakes were adjusted to achieve orts of 7-10% daily. Cows were milked twice daily at 0400 and 1500. Feed intake, milk yield and composition, body temperature, and body weight changes were monitored.

[2] = Crude glycerin as pellet binder: pellet mill current usage and pellet durability index (PDI); format: physicochemical
Text: In this embodiment, the crude glycerin [FROM SHEET WHEN GET FROM NEIL] […] Two corn/soy diets, one with low fat and one with high fat, and two high fiber diets, one with low fat and one with high fat, were formulated to provide the four treatment groups. […] Table 1 references diet formulations tested. The “HFP” referred to in Table 1 refers to a High Fat Product available from Archer Daniels Midland Company, Decatur, Ill. […] [table]

[3] = male, crossbred, cattle, in vivo
Description: A subset of ten cattle (5 from each treatment) were used for baseline and withdrawal sampling of rumen fluid and blood plasma for residual methanol quantification. […] Withdrawal samples were collected from the same subset of animals.

[4] = Glycerin as feed ingredient for lactating dairy cattle; format: in vivo, lactating Holstein cows; conditions: for Estimated Net Energy for Lactation (of the entire diet): calculated from energy output in milk and body weight increase
Description: In another embodiment, an evaluation was conducted to assess practical energy value of using glycerin as a feed ingredient for lactating dairy cattle. […] Diets were balanced to meet energy requirements based on the control diet, be isonitrogenous, and balanced to meet or exceed requirements for all other nutrients. The basal ration contained corn silage, alfalfa haylage, hay, high-moisture corn, vitamins, and minerals, and was formulated to contain about 17% CP, 6.5% RUP, and 10.5 RDP (DM basis).

[5] = Gross energy of crude glycerin sample; format: physicochemical; conditions: test crude glycerin sample with 14.8% moisture

With `OCC(O)CO` [crude glycerin, glycerin] the “NE Balance” value [1] was 6.15 mcal/day, the NE intake [1] was 38.74 mcal/day and the NE milk [1] was 27.07 mcal/day. The Body Weight change ([1]; 56 days) was “greater”, the Milk fat ([1]; 56 days) was 3.90% and the “Milk fat, milk protein, and energy corrected milk yield” value ([1]; 56 days) was “tended greater”. For the same compound, the Milk production ([1]; 56 days) was “not affected by treatment group”, the Milk protein ([1]; 56 days) was 2.93% and the “Retained net energy for lactation and/or body weight gain” value ([1]; 56 days) was “significantly greater”. The Milk ([1]; 56 days, all cows) was 38.53 kg/day, the DMI ([1]; 56 days, listed as Glycerin) was 23.49 kg/day and the DMI ([1]; 56 days, listed as glycerin) was “not different among treatment groups”. The “Milk, Multiparous” value ([1]; multiparous cows) was 36.63 kg/day, the “Milk, Primiparous” value ([1]; primiparous cows) was 40.42 kg/day and the “ECM (energy corrected milk)” value ([1]; (.3246 × kg milk) + (12.86 × kg fat) + (7.04 × kg protein)) was 39.40 kg/day. The BW change ([1]; difference in body weights using a weekly rolling average) was 0.779 kg/day, the PDI ([2]; Corn/Soy High Fat diet, crude glycerin 2.5%) was 54 and the PDI ([2]; Corn/Soy High Fat diet, crude glycerin 5.0%) was 66. For the same compound, the PDI ([2]; Corn/Soy Low Fat diet, crude glycerin 2.5%) was 89, the PDI ([2]; Corn/Soy Low Fat diet, crude glycerin 5.0%) was 93 and the PDI ([2]; High Fiber High Fat diet, crude glycerin 2.5%) was 89. It also gave a PDI ([2]; High Fiber High Fat diet, crude glycerin 5.0%) of 91, a PDI ([2]; High Fiber Low Fat diet, crude glycerin 2.5%) of 98 and a PDI ([2]; High Fiber Low Fat diet, crude glycerin 5.0%) of 98. The “animals with measurable methanol in rumen fluid” value [3] was 50%, the “animals with measurable methanol in rumen fluid” value ([3]; 16 day) was 100% and the “methanol in rumen fluid” value ([3]; 16 day) was no more than 23.77 ppm. For the same compound, the “Body Weight change” value ([4]; 5% glycerin fed (DM basis)) was 89.6^ab lbs, the “Body condition score change” value ([4]; 5% glycerin fed (DM basis)) was 0.1 and the Feed intake ([4]; 5% glycerin fed (DM basis)) was 53.9 lb/day. The Milk production ([4]; 5% glycerin fed (DM basis)) was 81.2 lb/day, the “Milk urea Nitrogen” value ([4]; 5% glycerin fed (DM basis)) was 10.9^b mg/dl and the “Somatic Cell Count” value ([4]; 5% glycerin fed (DM basis)) was 490 1000 cells/ml. The “Estimated Net Energy for Lactation (of the entire diet)” value (“Estimated Net Energy for Lactation” below) ([4]; 5% glycerin fed (DM basis)) was 1.55 mcal/kg, the “Body Weight change” value ([4]; 10% glycerin fed (DM basis)) was 109.3^b lbs and the “Body condition score change” value ([4]; 10% glycerin fed (DM basis)) was 0.1. For the same compound, the Feed intake ([4]; 10% glycerin fed (DM basis)) was 54.1 lb/day, the Milk production ([4]; 10% glycerin fed (DM basis)) was 82.1 lb/day and the “Milk urea Nitrogen” value ([4]; 10% glycerin fed (DM basis)) was 10.7^b mg/dl. For the same compound, the “Somatic Cell Count” value ([4]; 10% glycerin fed (DM basis)) was 137 1000 cells/ml, the “Estimated Net Energy for Lactation” value ([4]; 10% glycerin fed (DM basis)) was 1.57 mcal/kg and the “Body Weight change” value ([4]; 15% glycerin fed (DM basis)) was 113.5^b lbs. For the same compound, the “Body condition score change” value ([4]; 15% glycerin fed (DM basis)) was 0.1, the Feed intake ([4]; 15% glycerin fed (DM basis)) was 53.0 lb/day and the Milk production ([4]; 15% glycerin fed (DM basis)) was 80.0 lb/day. For the same compound, the “Milk urea Nitrogen” value ([4]; 15% glycerin fed (DM basis)) was 10.2^b mg/dl, the “Somatic Cell Count” value ([4]; 15% glycerin fed (DM basis)) was 144 1000 cells/ml and the “Estimated Net Energy for Lactation” value ([4]; 15% glycerin fed (DM basis)) was 1.58 mcal/kg. The Gross energy [5] was 3845 kcal/kg.
